The values that follow come from patent US9938281B2 (Merck Sharp & Dohme Corp., priority 2012, dated 2018).

In test [1] the target is T1, PI3K-delta (Homo sapiens, UniProt O00329).
T1 construct: purchased Upstate; Millipore 14-604
In words: HTRF PI3K biochemical assay, delta isoform. Particulars: form screened (neutral or TFA salt) given, read-out: PI3Kdelta IC50. Background: In TR-FRET formats the signal depends on donor and acceptor labels being close together.

The target of test [2] is T2, PI3K-alpha (Homo sapiens, UniProt P42336).
T2 construct: purchased Upstate; Millipore 14-602
T2 sequence (P42336 whole entry): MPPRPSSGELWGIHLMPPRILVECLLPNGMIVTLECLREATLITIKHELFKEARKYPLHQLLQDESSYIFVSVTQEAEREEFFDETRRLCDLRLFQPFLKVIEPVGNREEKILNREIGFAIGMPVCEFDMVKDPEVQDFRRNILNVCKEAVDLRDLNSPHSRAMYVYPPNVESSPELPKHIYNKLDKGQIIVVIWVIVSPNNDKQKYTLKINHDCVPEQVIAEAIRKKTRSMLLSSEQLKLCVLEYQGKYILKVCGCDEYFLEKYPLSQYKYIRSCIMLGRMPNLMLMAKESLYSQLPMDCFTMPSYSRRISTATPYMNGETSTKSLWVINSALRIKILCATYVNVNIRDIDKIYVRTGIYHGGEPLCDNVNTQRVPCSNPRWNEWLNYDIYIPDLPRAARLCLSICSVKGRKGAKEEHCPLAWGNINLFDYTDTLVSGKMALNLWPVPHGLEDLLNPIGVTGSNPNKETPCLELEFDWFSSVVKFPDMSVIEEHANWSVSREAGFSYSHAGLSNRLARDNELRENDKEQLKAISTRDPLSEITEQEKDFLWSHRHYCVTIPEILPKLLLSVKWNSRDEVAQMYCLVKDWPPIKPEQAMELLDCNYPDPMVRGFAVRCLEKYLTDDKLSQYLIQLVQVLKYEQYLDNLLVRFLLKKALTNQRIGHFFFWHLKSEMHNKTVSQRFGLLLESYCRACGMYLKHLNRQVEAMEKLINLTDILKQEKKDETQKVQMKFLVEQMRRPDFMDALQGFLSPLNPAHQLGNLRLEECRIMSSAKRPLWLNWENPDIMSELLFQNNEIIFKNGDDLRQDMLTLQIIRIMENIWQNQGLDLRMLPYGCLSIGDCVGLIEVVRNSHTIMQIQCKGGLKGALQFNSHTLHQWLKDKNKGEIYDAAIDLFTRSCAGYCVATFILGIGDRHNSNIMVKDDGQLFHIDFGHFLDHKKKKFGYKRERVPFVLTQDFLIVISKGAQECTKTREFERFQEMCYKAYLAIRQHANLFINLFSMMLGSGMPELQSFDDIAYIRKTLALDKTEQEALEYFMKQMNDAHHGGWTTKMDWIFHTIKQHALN
T2 sequence (P27986 whole entry partner): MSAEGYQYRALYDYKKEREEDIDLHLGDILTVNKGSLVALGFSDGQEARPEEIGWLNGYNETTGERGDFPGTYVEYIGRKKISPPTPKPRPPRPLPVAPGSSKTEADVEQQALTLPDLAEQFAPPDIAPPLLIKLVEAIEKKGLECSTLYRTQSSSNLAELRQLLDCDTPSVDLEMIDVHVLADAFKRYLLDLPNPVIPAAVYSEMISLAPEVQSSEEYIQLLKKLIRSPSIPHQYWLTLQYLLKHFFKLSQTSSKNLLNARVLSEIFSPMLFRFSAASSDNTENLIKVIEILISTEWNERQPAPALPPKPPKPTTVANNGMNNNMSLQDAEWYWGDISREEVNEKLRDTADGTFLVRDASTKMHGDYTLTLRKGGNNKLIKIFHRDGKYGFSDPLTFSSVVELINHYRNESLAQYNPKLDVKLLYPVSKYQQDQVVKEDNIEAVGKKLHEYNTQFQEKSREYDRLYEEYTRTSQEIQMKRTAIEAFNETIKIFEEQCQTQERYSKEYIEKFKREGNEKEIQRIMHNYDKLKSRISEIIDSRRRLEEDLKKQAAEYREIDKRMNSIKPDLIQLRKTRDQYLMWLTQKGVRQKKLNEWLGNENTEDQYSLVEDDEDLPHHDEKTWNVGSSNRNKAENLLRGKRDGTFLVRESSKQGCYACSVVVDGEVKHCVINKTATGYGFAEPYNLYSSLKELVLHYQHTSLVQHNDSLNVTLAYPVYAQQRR
In words: HTRF PI3K biochemical assay, alpha isoform. Particulars: ratio PI3K-alpha IC50 value / PI3K-delta IC50 value.

T1 sequence (O00329 whole entry): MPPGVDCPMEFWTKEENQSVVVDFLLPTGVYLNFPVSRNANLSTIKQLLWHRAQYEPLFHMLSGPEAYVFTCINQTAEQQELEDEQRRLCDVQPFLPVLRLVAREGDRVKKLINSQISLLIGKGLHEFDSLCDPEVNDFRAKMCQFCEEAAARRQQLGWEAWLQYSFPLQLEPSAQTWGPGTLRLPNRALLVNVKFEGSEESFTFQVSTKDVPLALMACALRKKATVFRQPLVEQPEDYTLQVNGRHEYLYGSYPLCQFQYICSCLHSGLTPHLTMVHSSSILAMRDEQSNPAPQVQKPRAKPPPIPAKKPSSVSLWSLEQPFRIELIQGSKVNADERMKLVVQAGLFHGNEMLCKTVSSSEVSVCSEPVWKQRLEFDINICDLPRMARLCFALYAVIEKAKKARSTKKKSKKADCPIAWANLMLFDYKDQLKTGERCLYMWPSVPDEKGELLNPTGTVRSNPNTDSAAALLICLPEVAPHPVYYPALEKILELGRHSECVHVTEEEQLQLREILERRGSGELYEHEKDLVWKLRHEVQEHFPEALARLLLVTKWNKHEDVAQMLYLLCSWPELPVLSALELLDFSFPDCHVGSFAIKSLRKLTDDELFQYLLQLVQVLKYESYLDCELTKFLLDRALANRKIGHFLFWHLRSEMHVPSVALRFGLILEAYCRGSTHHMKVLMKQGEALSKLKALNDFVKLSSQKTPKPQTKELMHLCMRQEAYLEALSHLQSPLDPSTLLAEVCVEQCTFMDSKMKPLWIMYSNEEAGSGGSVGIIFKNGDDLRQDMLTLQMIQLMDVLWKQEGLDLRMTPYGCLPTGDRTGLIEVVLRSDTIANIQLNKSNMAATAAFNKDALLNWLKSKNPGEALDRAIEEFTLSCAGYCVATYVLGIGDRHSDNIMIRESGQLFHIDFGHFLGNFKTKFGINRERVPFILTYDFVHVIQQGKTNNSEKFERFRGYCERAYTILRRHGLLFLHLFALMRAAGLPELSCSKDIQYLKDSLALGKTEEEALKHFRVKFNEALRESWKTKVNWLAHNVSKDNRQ
T1 sequence (P27986 whole entry partner): as the sequence (P27986 whole entry partner) above

Turning to `CCn1c(OC(C)C)nc2c(N[C@H]3CCN(C(=O)C4CC4)C3)ncnc21` [Compound 8-7, N-[(3S)-1-(cyclopropylcarbonyl)pyrrolidin-3-yl]-9-ethyl-8-(1-methylethoxy)-9H-purin-6-amine], in test [1], the IC50 turned out to be 35 nM. Further, the “Selectivity versus PI3Kalpha” value in test [2] is greater than 10.
The matching figures for `CCC1CN(C(=O)C2CC2)CC1Nc1ncnc2c1nc(-c1cnc(C)nc1)n2CC` (racemic) [Compound 3-19, N-[(3R,4S and 3S,4R)-1-(cyclopropylcarbonyl)-4-ethylpyrrolidin-3-yl]-9-ethyl-8-(2-methylpyrimidin-5-yl)-9H-purin-6-amine]: 3.8 nM and greater than 10.
As for `CCOC(=O)C(C)NC(=O)N1CC[C@H](Nc2ncnc3c2nc(-c2cnc(C)nc2)n3CC)C1` (stereo partly drawn) [Compound 12-18, ethyl N-{[(3S)-3-{[9-ethyl-8-(2-methylpyrimidin-5-yl)-9H-purin-6-yl]amino}pyrrolidin-1-yl]carbonyl}(D and L)-alaninate], the IC50 in test [1] was determined as 13 nM. In test [2], the “Selectivity versus PI3Kalpha” value is greater than 10.
With `CCn1c(-c2ccc(C(F)(F)F)nc2)nc2c(N[C@H]3CCN(c4ccccn4)C3)ncnc21` [Compound 4-4, 9-ethyl-N-[(3S)-1-pyridin-2-ylpyrrolidin-3-yl]-8-[6-(trifluoromethyl)pyridin-3-yl]-9H-purin-6-amine], the IC50 in test [1] is less than 1 nM. For the same molecule, the “Selectivity versus PI3Kalpha” value in test [2] is greater than 10.
For `CCn1c(-c2cnc(C)nc2)nc2c(N[C@H]3CCN(C(=O)N4CCOCC4)C3)ncnc21` [Compound 12-4, 9-ethyl-8-(2-methylpyrimidin-5-yl)-N-[(3S)-1-(morpholin-4-ylcarbonyl)pyrrolidin-3-yl]-9H-purin-6-amine] the same measures were 4.5 nM and greater than 10.
In the case of `CCn1c(-c2cnc(C)nc2)nc2c(N[C@H]3CCN(C(=O)C4CC(C)(C)C4)C3)ncnc21` [Compound 2-59, N-{(3S)-1-[(3,3-dimethylcyclobutyl)carbonyl]pyrrolidin-3-yl}-9-ethyl-8-(2-methylpyrimidin-5-yl)-9H-purin-6-amine], the IC50 in test [1] was less than 1 nM. For the same molecule, the “Selectivity versus PI3Kalpha” value in test [2] is listed as greater than 10.
In the case of `CCn1c(C(=O)N(C)CC(F)(F)F)nc2c(N[C@H]3CCN(C(=O)C4CC4)C3)ncnc21` [Compound 6-15, 6-{[(3S)-1-(cyclopropylcarbonyl)pyrrolidin-3-yl]amino}-9-ethyl-N-methyl-N-(2,2,2-trifluoroethyl)-9H-purine-8-carboxamide], the IC50 in test [1] came out at 230 nM. For the same molecule, the “Selectivity versus PI3Kalpha” value in test [2] is greater than 10.
The matching figures for `CCn1c(-c2cnc(C)nc2)nc2c(N[C@H]3C[C@@H](C(=O)OC)N(C(=O)C4CC4)C3)ncnc21` [Compound 2-54, methyl (4S)-1-(cyclopropylcarbonyl)-4-{[9-ethyl-8-(2-methylpyrimidin-5-yl)-9H-purin-6-yl]amino}-L-prolinate]: 63 nM and greater than 10.
Consider `CCn1c(-c2cnc(C)nc2)nc2c(N[C@H]3CCN(c4cccc(OC)n4)C3)ncnc21` [Compound 4-7, 9-ethyl-N-[(3S)-1-(6-methoxypyridin-2-yl)pyrrolidin-3-yl]-8-(2-methylpyrimidin-5-yl)-9H-purin-6-amine], for which the IC50 in test [1] turned out to be 1.4 nM. The “Selectivity versus PI3Kalpha” value in test [2] is reported as greater than 10.
As to `CCC(=O)N1CC[C@H](Nc2ncnc3c2nc(-c2cnn(CC)c2C)n3CC2CC2)C1` [Compound 9-3, 9-(cyclopropylmethyl)-8-(1-ethyl-5-methyl-1H-pyrazol-4-yl)-N-[(3S)-1-propanoylpyrrolidin-3-yl]-9H-purin-6-amine], in test [1], the IC50 worked out at 67 nM. Moreover, the “Selectivity versus PI3Kalpha” value in test [2] is greater than 10.
For `CCn1c(-c2cnc(C)nc2)nc2c(N[C@H]3CCN(C(=O)C4CN(C(C)C)C4)C3)ncnc21` [Compound 2-79, 9-ethyl-N-[(3S)-1-{[1-(1-methylethyl)azetidin-3-yl]carbonyl}pyrrolidin-3-yl]-8-(2-methylpyrimidin-5-yl)-9H-purin-6-amine] the same measures were 17 nM and greater than 10.
On to `CCn1c(-c2cnc(OC)c(F)c2)nc2c(N[C@H]3CCN(C(=O)c4cncn4C)C3)ncnc21` [Compound 3A-2, 9-ethyl-8-(5-fluoro-6-methoxypyridin-3-yl)-N-{(3S)-1-[(1-methyl-1H-imidazol-5-yl)carbonyl]pyrrolidin-3-yl}-9H-purin-6-amine], for which the IC50 in test [1] was less than 1 nM. Moreover, the “Selectivity versus PI3Kalpha” value in test [2] is listed as greater than 10.
With `CCn1c(-c2cnc(C)nc2)nc2c(N[C@H]3CCN(C(=O)C4(COC)CC4)C3)ncnc21` [Compound 2-61, 9-ethyl-N-[(3S)-1-{[1-(methoxymethyl)cyclopropyl]carbonyl}pyrrolidin-3-yl]-8-(2-methylpyrimidin-5-yl)-9H-purin-6-amine], the IC50 in test [1] amounted to 23 nM. Moreover, the “Selectivity versus PI3Kalpha” value in test [2] was greater than 10.
Regarding `CCn1c(C(F)F)nc2c(N[C@H]3CCN(C(=O)c4cocn4)C3)ncnc21` [Compound 7-16, 8-(difluoromethyl)-9-ethyl-N-[(3S)-1-(1,3-oxazol-4-ylcarbonyl)pyrrolidin-3-yl]-9H-purin-6-amine], in test [1], the IC50 was found to be 120 nM. Besides, the “Selectivity versus PI3Kalpha” value in test [2] is given as greater than 10.
Take `CCn1c(-c2cnc(C(C)(C)C)s2)nc2c(N[C@H]3CCN(C(=O)OC(C)(C)C)C3)ncnc21` [Compound 1-6, (S)-tert-butyl 3-((8-(2-(tert-butyl)thiazol-5-yl)-9-ethyl-9H-purin-6-yl)amino)pyrrolidine-1-carboxylate]: the IC50 in test [1] was less than 1 nM. For the same molecule, the “Selectivity versus PI3Kalpha” value in test [2] is listed as 8.
Turning to `CCC(=O)N1CC[C@H](Nc2ncnc3c2nc(-c2ccc(OC)c(C)c2)n3C)C1` [Compound 3-32, 8-(4-methoxy-3-methylphenyl)-9-methyl-N-[(3S)-1-propanoylpyrrolidin-3-yl]-9H-purin-6-amine], the IC50 in test [1] is 1.9 nM. Besides, the “Selectivity versus PI3Kalpha” value in test [2] was greater than 10.
With `CCn1c(-c2cnc(C)nc2)nc2c(NC3CN(C(=O)OC(C)(C)C)CC3(F)F)ncnc21` (racemic) [Compound 1-21, (R and S)-tert-butyl 4-{[9-ethyl-8-(2-methylpyrimidin-5-yl)-9H-purin-6-yl]amino}-3,3-difluoropyrrolidine-1-carboxylate], in test [1], the IC50 is 9.4 nM. Also, the “Selectivity versus PI3Kalpha” value in test [2] is given as greater than 10.
For `CCn1c(C(=O)NC2COC2)nc2c(N[C@H]3CCN(C(=O)C4CC4)C3)ncnc21` [Compound 6-6, 6-{[(3S)-1-(cyclopropylcarbonyl)pyrrolidin-3-yl]amino}-9-ethyl-N-oxetan-3-yl-9H-purine-8-carboxamide] the same measures were 62 nM and greater than 10.
Consider `CCn1c(-c2cnc(C)nc2)nc2c(N[C@H]3CCN(C(=O)c4cncn4C)C3)ncnc21` [Compound 2-69, [(3S)-3-{[9-ethyl-8-(2-methylpyrimidin-5-yl)-9H-purin-6-yl]amino}pyrrolidin-1-yl](1-methyl-1H-imidazol-5-yl)methanone], for which, in test [1], the IC50 is 3.8 nM. In addition, the “Selectivity versus PI3Kalpha” value in test [2] is greater than 10.
Take `CCn1c(-c2cnc(C)nc2)nc2c(N[C@H]3CCN(C(=O)C4CC45CCCC5)C3)ncnc21` (single isomer, unassigned) [Compound 2-34, 9-ethyl-8-(2-methylpyrimidin-5-yl)-N-[(3S)-1-((R or S)-spiro[2.4]hept-1-ylcarbonyl)pyrrolidin-3-yl]-9H-purin-6-amine]: in test [1], the IC50 is 11 nM. In test [2], the “Selectivity versus PI3Kalpha” value is on record as greater than 10.
